Biological target: FTase (Homo sapiens, UniProt P49354+P49356)
Test: in vitro assay measuring the inhibition of FTase (FPT IC50), methods of WO95/10516
Format: biochemical
Details: concentration of compound which inhibits 50% of FPT transferase
From the text: Measurements of pharmacological activity of the present compounds can be made based upon a […] (i.e. FPT lC50), cell mat assay (GGPT lC50) or in vitro tumor activity (Cos Cell lC50) as described by the methods in W095/10516.
FPT lC50 values refer to concentration, in micromoles (µM), of compound which inhibits 50% of FPT transferase

Sequence of FTase (P49356 whole entry, one chain of several): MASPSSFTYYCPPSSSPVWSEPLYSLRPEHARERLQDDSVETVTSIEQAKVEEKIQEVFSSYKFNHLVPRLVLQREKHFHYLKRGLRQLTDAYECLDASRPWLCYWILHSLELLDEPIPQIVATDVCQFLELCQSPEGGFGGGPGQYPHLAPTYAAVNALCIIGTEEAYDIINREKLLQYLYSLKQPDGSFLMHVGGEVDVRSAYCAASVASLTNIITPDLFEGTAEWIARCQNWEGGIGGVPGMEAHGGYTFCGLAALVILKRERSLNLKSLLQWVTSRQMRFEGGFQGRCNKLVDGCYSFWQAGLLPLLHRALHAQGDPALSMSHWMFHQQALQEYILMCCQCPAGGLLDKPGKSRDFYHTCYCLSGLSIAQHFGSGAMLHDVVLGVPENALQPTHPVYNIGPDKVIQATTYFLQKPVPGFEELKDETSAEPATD

IC50: > 50 µM
SMILES: CC(C)NC(=O)CC1CN(C(=O)c2ccc3ccccc3c2)CCN1C(=O)Cc1ccncc1 (stereo not shown)

From EP0820452B1, “CARBONYL-PIPERAZINYL AND PIPERIDINIL COMPOUNDS WHICH INHIBIT FARNESYL PROTEIN TRANSFERASE” (SCHERING CORPORATION, priority 1995, dated 1996)
